Data: patent US10100050B2 (CHIESI FARMACEUTICI S.P.A., priority 2015, dated 2018)
Counter-ions that a name gives are not always drawn.

Tests used:
[1] = system: Peripheral Blood Mononuclear Cells (PBMCs); assay: LPS-stimulated PBMC TNFα release assay; format: cell-based; conditions: IC50 classes; human PBMC, LPS 10 ng/ml, 18 h; read-out: LPS-stimulated PBMC TNFα release inhibition
Description: 1-10 nM ‘+’; • <1 nM ‘++’ LPS-Stimulated PBMC TNFα Release Assay
Peripheral Blood Mononuclear Cells (PBMCs) were isolated from healthy human volunteer blood using a standard density gradient centrifugation technique. Citrated blood was placed onto Histopaque™ and centrifuged. The PBMCs were removed from the density gradient interface and washed in phosphate buffered saline (PBS). The PBMCs were suspended in RPMI 1640 medium (without serum), dispensed into a 96-well plate and incubated at 37° C. for 3 h in a humidified incubator. After incubation, the medium was replaced (with medium containing 1% foetal bovine serum) and the plate incubated at 37° C., for 1 h, in the presence of test compound or the appropriate vehicle. LPS (10 ng/ml), or an appropriate vehicle control, was then added to the cells and the plate returned to the incubator for 18 h. Cell-free supernatants were removed and assayed for TNFα levels using MSD plates on the Sector Imager 6000 (MesoScale).
A dose response curve to each test compound was performed and the effect of compound in each experiment was expressed as a percentage inhibition of the control TNFα release. Dose response curves were plotted and compound potency (IC50) was determined. Compounds were tested in at least three separate experiments.

BEAS-2B cells = assay: TNFα-stimulated BEAS-2B IL-8 release assay; format: cell-based; conditions: Homo sapiens, IC50 classes, TNF-α 10 ng/ml, 18 h, read-out: TNFα-stimulated BEAS-2B IL-8 release inhibition
Description: TNFα-Stimulated BEAS-2B IL-8 Release Assay
Human bronchial epithelial cell line BEAS-2B was purchased from Sigma (St. Louis, Mo.). BEAS-2B cells were cultured in Bronchial Epithelial cell Growth Medium (BEGM), prepared by supplementing Bronchial Epithelial Basal Medium with SingleQuotes™ (Lonza, Switzerland), which contains retinoic acid, epidermal growth factor, epinephrine, transferrin, triiodothyronin, insulin, hydrocortisone, antimicrobial agents, and bovine pituitary extract. In addition, BEGM medium was supplemented with 2 mM glutamine, 100 U penicillin and 100 μg/ml streptomycin (Life Technologies), in an atmosphere of 95% air and 5% CO2 at 37° C.
BEAS-2B were seeded in 48-well plates at the density of 3×10^4 cells per well, grown to approximately 80-90% confluence. Cells were pre-incubated with p38 inhibitors for 1 hour and then stimulated with TNF-α (10 ng/ml) for 18 h at 37° C. with 5% CO2. Subsequently, supernatants were collected and used for measuring IL-8 levels using a paired antibody quantitative ELISA kit purchased from Life Technologies (detection limit: […]). All the treatments were performed at least in quadruplicate.
A concentration-response curve to each test compound was performed and the effect of compound in each experiment was expressed as a percentage inhibition of the control IL-8 release. Compound potency (IC50) was calculated by the analysis of the sigmoidal dose-response curve (variable slope) elaborated by Graph Pad PRISM4 program.

p38alpha = molecular target: T1, p38alpha (Homo sapiens, UniProt Q16539); assay: P38alpha enzyme inhibition assay (Alphascreen kinase activity assay); format: biochemical; conditions: IC50 classes; 2 hours preincubation at 25° C., 250 μM ATP; read-out: p38α inhibition
T1 construct: purchased Invitrogen PV3304
Description: P38alpha Enzyme Inhibition Assay
The inhibitory activity of compounds was determined using an Alphascreen® (Perkin Elmer) based kinase activity assay. Kinase reactions consisted of 25 mM HEPES pH 7.5, 10 mM MgCl2, 100 μM Na3VO4, 2 mM DTT, 0.05 mg/ml Tween […] (Invitrogen, PV3304), 1% DMSO and 0.3 μg/ml ATF-2 fusion protein (New England Biolabs, 9224). Compounds were incubated under these conditions for 2 hours, at 25° C., prior to the initiation of the kinase activity by the addition of the 250 μM ATP. Reaction volumes were 20 uL. After 1 hr at 25° C. reactions were stopped by the adding 10 uL of 25 mM HEPES pH 7.5 containing 62.5 mM EDTA, 0.05% Triton X-100, 10% BSA and 0.83 ng/uL anti-phospho-ATF2 antibody (Abcam, ab28812). Detection was performed by measuring luminescence following the addition of Alphascreen Donor beads (Perkin Elmer 6765300) and Protein A Alphascreen Acceptor beads (Perkin Elmer 6760137), both at a final concentration of 20 ug/ml. IC50 values were determined from concentration-response curves.

T1 sequence (Q16539 whole entry): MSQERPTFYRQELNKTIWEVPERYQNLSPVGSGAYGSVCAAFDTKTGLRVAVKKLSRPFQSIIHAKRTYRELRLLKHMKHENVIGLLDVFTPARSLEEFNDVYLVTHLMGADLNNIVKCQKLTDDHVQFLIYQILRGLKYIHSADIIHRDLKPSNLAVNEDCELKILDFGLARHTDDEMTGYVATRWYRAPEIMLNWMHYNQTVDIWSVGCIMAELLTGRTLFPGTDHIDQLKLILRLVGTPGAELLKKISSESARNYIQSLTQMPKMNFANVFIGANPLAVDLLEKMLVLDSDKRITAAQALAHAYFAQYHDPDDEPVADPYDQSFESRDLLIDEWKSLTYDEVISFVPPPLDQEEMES

SMILES | IC50 (p38alpha) [nM] | IC50 [1] [nM] | IC50 (BEAS-2B cells) [nM]
COc1ccc(C(C)(C)C)cc1NC(=O)N[C@H]1CC[C@@H](Oc2ccc3nnc([C@@H]4CCCN4C)n3c2)c2ccccc21 [Example 1, hydrochloride salt] | < 1 | < 1 | < 0.3
COc1c(CO)cc(C(C)(C)C)cc1NC(=O)N[C@H]1CC[C@@H](Oc2ccc3nnc([C@@H]4CCCN4C)n3c2)c2ccccc21 [Example 2, 1-(5-tert-Butyl-3-hydroxymethyl-2-methoxy-phenyl)-3-{(1S,4R)-4-[-3-((S)-1-methyl-pyrrolidin-2-yl)-[1,2,4]triazolo[4,3-a]pyridin-6-yloxy]-1,2,3,4-tetrahydro-naphthalen-1-yl}-urea] | < 1 | < 1 | < 0.3
COc1c(NC(=O)N[C@H]2CC[C@@H](Oc3ccc4nnc([C@@H]5CCCN5C)n4c3)c3ccccc32)cc(C(C)(C)C)cc1N(CCO)S(C)(=O)=O [Example 17, N-[5-tert-Butyl-2-methoxy-3-(3-{(1S,4R)-4-[3-((S)-1-methyl-pyrrolidin-2-1)-[1,2,4]triazolo[4,3-a]pyridin-6-yloxy]-1,2,3,4-tetrahydro-naphthalen-1-yl}-ureido)-phenyl]-N-(2-hydroxy-ethyl)-methanesulfonamide formate salt] | 1 to 10 | > 5 | 
CN1CCC[C@@H]1c1nnc2ccc(O[C@@H]3CC[C@H](NC(=O)Nc4cc(NS(C)(=O)=O)cc(C(C)(C)C)c4)c4ccccc43)cn12 [Example 22] | < 1 | 1 to 5 | 
CC(C)N1CCCC[C@H]1c1nnc2ccc(O[C@@H]3CC[C@H](NC(=O)Nc4cc(NS(C)(=O)=O)cc(C(C)(C)C)c4)c4ccccc43)cn12 [Example 23] | 1 to 10 | > 5 | 
CN1CC(C)(C)C[C@H]1c1nnc2ccc(O[C@@H]3CC[C@H](NC(=O)Nc4cc(NS(C)(=O)=O)cc(C(C)(C)C)c4)c4ccccc43)cn12 [Example 26, N-[3-tert-Butyl-5-(3-{(1S,4R)-4-[3-((S)-1,4,4-trimethyl-pyrrolidin-2-yl)-[1,2,4]triazolo[4,3-a]pyridin-6-yloxy]-1,2,3,4-tetrahydro-naphthalenyl}-ureido)-phenyl]-methanesulfonamide] | 1 to 10 | 1 to 5 | 
CC(C)N1CCC[C@@]1(C)c1nnc2ccc(O[C@@H]3CC[C@H](NC(=O)Nc4cc(NS(C)(=O)=O)cc(C(C)(C)C)c4)c4ccccc43)cn12 [Example 28, N-[3-tert-Butyl-5-(3-{(1S,4R)-4-[3-((S)-1-isopropyl-2-methyl-pyrrolidin-2-yl)-[1,2,4]triazolo[4,3-a]pyridin-6-yloxy]-1,2,3,4-tetrahydro-naphthalen-1-yl}-ureido)-phenyl]-methanesulfonamide] | < 1 | 1 to 5 | 
CC(C)(C)c1cc(NC(=O)N[C@H]2CC[C@@H](Oc3ccc4nnc([C@]5(C)CCCN5)n4c3)c3ccccc32)cc(NS(C)(=O)=O)c1 [Example 29, N-[3-tert-Butyl-5-(3-{(1S,4R)-4-[3-((S)-2-methyl-pyrrolidin-2-yl)-[1,2,4]triazolo[4,3-a]pyridin-6-yloxy]-1,2,3,4-tetrahydro-naphthalen-1-yl}-ureido)-phenyl]-methanesulfonamide] | < 1 | 1 to 5 | 
CN1CCC[C@@H](c2nnc3ccc(O[C@@H]4CC[C@H](NC(=O)Nc5cc(NS(C)(=O)=O)cc(C(C)(C)C)c5)c5ccccc54)cn23)C1 [Example 30, N-[3-tert-Butyl-5-(3-{(1S,4R)-4-[3-((R)-1-methyl-piperidin-3-yl)-[1,2,4]triazolo[4,3-a]pyridin-6-yloxy]-1,2,3,4-tetrahydro-naphthalen-1-yl}-ureido)-phenyl]-methanesulfonamide] | 1 to 10 | > 5 | 
CC(C)(C)c1cc(NC(=O)N[C@H]2CC[C@@H](Oc3ccc4nnc([C@]5(C)CCCN5CCO)n4c3)c3ccccc32)cc(NS(C)(=O)=O)c1 [Example 32, N-{3-tert-Butyl-5-[3-((1S,4R)-4-{3-[(S)-1-(2-hydroxy-ethyl)-2-methyl-pyrrolidin-2-yl]-[1,2,4]triazolo[4,3-a]pyridin-6-yloxy}-1,2,3,4-tetrahydro-naphthalen-1-yl)-ureido]-phenyl}-methanesulfonamide] | < 1 | 1 to 5 | 
CN(C)C(C)(C)c1nnc2ccc(O[C@@H]3CC[C@H](NC(=O)Nc4cc(N)cc(C(C)(C)C)c4)c4ccccc43)cn12 [Example 34] | < 1 | < 1 | 

Further lines, with some results ahead:

IC50 (p38alpha) [nM] | SMILES | IC50 [1] [nM] | IC50 (BEAS-2B cells) [nM]
< 1 | COC(=O)c1cc(NC(=O)N[C@H]2CC[C@@H](Oc3ccc4nnc([C@@H]5CCCN5C)n4c3)c3ccccc32)cc(C(C)(C)C)c1 [Example 40, 3-tert-Butyl-5-(3-{(1S,4R)-4-[3((S)-1-methyl-pyrrolidin-2-yl)-[1,2,4]triazolo[4,3-a]pyridin-6-yloxy]-1,2,3,4-tetrahydro-naphthalen-1-yl}-ureido)-benzoic acid methyl ester] | 1 to 5 | 
1 to 10 | COC(=O)c1cc(NC(=O)N[C@H]2CC[C@@H](Oc3ccc4nnc([C@]5(C)CCCN5C)n4c3)c3ccccc32)cc(C(C)(C)C)c1 [Example 41, 3-tert-Butyl-5-(3-{(1S,4R)-4-[3-((S)-1,2-dimethyl-pyrrolidin-2-yl)-[1,2,4]triazolo[4,3-a]pyridin-6-yloxy]-1,2,3,4-tetrahydro-naphthalen-1-yl}-ureido)-benzoic acid methyl ester] |  | < 0.3
< 1 | CN1CCC[C@@]1(C)c1nnc2ccc(O[C@@H]3CC[C@H](NC(=O)Nc4cc(N5CCOCC5)cc(C(C)(C)C)c4)c4ccccc43)cn12 [Example 48, 1-(3-tert-Butyl-5-morpholin-4-yl-phenyl)-3-{(1S,4R)-4-[3-((S)-1,2-dimethyl-pyrrolidin-2-yl)-[1,2,4]triazolo[4,3-a]pyridin-6-yloxy]-1,2,3,4-tetrahydro-naphthalen-1-yl}-urea] | < 1 | 
< 1 | CN1CCC[C@H]1c1nnc2ccc(O[C@@H]3CC[C@H](NC(=O)Nc4cc(C(=O)NCCO)cc(C(C)(C)C)c4)c4ccccc43)cn12 [Example 50, 3-tert-Butyl-N-(2-hydroxy-ethyl)-5-(3-{(1S,4R)-4-[3-((S)-1-methyl-pyrrolidin-2-yl)-[1,2,4]triazolo[4,3-a]pyridin-6-yloxy]-1,2,3,4-tetrahydro-naphthalen-1-yl}-ureido)-benzamide] | > 5 | 
< 1 | CN1CCC[C@H]1c1nnc2ccc(O[C@@H]3CC[C@H](NC(=O)Nc4cc(C(N)=O)cc(C(C)(C)C)c4)c4ccccc43)cn12 [Example 52, 3-tert-Butyl-5-(3-{(1S,4R)-4-[3-((S)-1-methyl-pyrrolidin-2-yl)-[1,2,4]triazolo[4,3-a]pyridin-6-yloxy]-1,2,3,4-tetrahydro-naphthalen-1-yl}-ureido)-benzamide] | 1 to 5 | 
1 to 10 | COc1c(NC(=O)N[C@H]2CC[C@@H](Oc3ccc4nnc(N5CCCCC5)n4c3)c3ccccc32)cc(C(C)(C)C)cc1N(CCN(C)C)S(C)(=O)=O [Example 60, N-(5-tert-Butyl-2-methoxy-3-{3-[(1S,4R)-4-(3-piperidin-1-yl-[1,2,4]triazolo[4,3,a]pyridin-6-yloxy)-1,2,3,4-tetrahydro-naphthalen-1-yl]-ureido}-phenyl-N-(2-dimethylamino-ethyl)-methanesulfonamide formate salt] | > 5 | 
